Reference: patent US9903855B2, “Assays for screening for or identifying an agent or molecule that can block or inhibit AVB3 integrin from forming a complex with KRAS” (THE REGENTS OF THE UNIVERSITY OF CALIFORNIA, priority 2012, dated 2018)

Experiments:
[1] = test system: FG and PANC-1 cells expressing or lacking integrin β3; assay: Soft agar / tumorsphere 3D growth, drug dose response (Example 3); format: cell-based, human; conditions: cells growing in 3D
Experimental: Tumorsphere assay was performed as previously described. Soft agar formation assays were performed essentially as described previously. […] The media was replaced with fresh inhibitor 2/5 times a week. […] (a) Effect of integrin β3 expression (ectopic expression for FG and integrin β3-specific knockdown for PANC-1) cells on drug treatment response. Cells were treated with a dose response of gemcitabine, cisplatin, erlotinib, lapatinib and linsitinib. […] Tumor volumes are expressed as mean±SEM. *P<0.05. […] Results are expressed as % tumor weight compared to vehicle control. *P<0.05. […] HCC827 cells were treated with vehicle control or erlotinib (12.5 mg/kg/day) until acquired resistance. […] Data are mean±SE; **P<0.001. […] Scale bar, 50 μm. (h) Limiting dilution in vivo determining the frequency of tumor-initiating cells for HCC827 vehicle-treated (vehicle) and erlotinib-treated tumors from (erlotinib resistant non-sorted) (e). The HCC827 erlotinib-treated tumors have been digested and sorted in two groups: the integrin β3- and the integrin β3+ population.

FG and FG-β3 cells = assay: Tumor sphere formation assay of FG and FG-β3 cells; format: cell-based, human; conditions: FG-β3 versus FG
Experimental: Tumor spheres formation assays were performed essentially as described previously^17. Briefly, cells were seeded at 1000 to 2000 cells per well and grown for 12 days to 3 weeks. Cells were treated with vehicle (DMSO), erlotinib (10 nM to 5 μM), lapatinib (10 nM to 5 μM), gemcitabine (0.001 nM to 5 μM), OSI-906 (10 nM to 5 μM), lenalidomide (10 nM to 5 μM), or cisplatin (10 nM to 5 μM), diluted in DMSO. The media was replaced with fresh inhibitor every day for erlotinib, lapatinib, lenalidomide and 3 times a week for cisplatin and gemcitabine. Colonies were stained with crystal violet and scored with an Olympus SZH10 microscope. Survival curves were generated at least with five concentration points.

[2] = test system: β3-negative and β3-positive cells; assay: Tumorsphere assay of β3-negative and β3-positive cells (Example 2); format: cell-based, human; conditions: β3-positive versus β3-negative cells
Experimental: Tumorsphere assay was performed as previously described (10). Cells were treated with vehicle (DMSO), erlotinib (10 nM to 5 μM), lapatinib (10 nM to 5 μM), gemcitabine (0.001 nM to 5 μM), OSI-906 (10 nM to 5 μM), lenalidomide (1 μM), cisplatin (10 nM to 5 μM), or bortezomib (4 nM) diluted in DMSO. The media was replaced with fresh inhibitor 2/6 times a week. Survival curves were generated at least with five concentration points.
(D) Representative photographs of crystal violet-stained tumorspheres of β3-negative and β3-positive cells after erlotinib, OSI-906, gemcitabine and cisplatin treatment. (E) Effect of integrin β3 expression on lapatinib, OSI-906, cisplatin and gemcitabine n=3; mean±SEM.

[3] = test system: subcutaneous β3-positive tumors (FG-β3, FG-R); assay: Subcutaneous β3-positive tumor xenografts; conditions: monotherapy; lenalidomide 25 mg/kg/day, bortezomib 0.25 mg/kg
Experimental: To generate subcutaneous tumors, FG-β3, FG-R (after erlotinib resistance) and HCC-827 human carcinoma cells (5×10^6 tumor cells in 200 μl of PBS) were injected subcutaneously to the left or right flank of 6-8-week-old female nude mice. Tumors were measured every 2-3 days with calipers until they were harvested at day 10, 16 or after acquired resistance.
(B) Left, mice bearing subcutaneous β3-positive tumors (FG-β3) were treated with vehicle, erlotinib (25 mg/kg/day), lenalidomide (25 mg/kg/day) or the combination of erlotinib and lenalidomide. Tumor dimensions are reported as the fold change relative to size of the same tumor on Day 1. […] Right, mice bearing subcutaneous β3-positive tumors (FG-R) after acquired resistance to erlotinib were treated with vehicle, erlotinib (25 mg/kg/day), bortezomib (0.25 mg/kg), the combination of erlotinib and bortezomib.

[4] = test system: β3-positive cells (FG-β3, MDA-MB231, FG-R); assay: Soft agar anchorage independent growth, colonies counted; format: cell-based, human; conditions: erlotinib (0.5 μM), Lenalidomide (2 μM), PS-1145 (1 μM) alone, 10 to 15 days
Source text: Then, the soft agar were stained with crystal violet and the colonies were counted manually.

EGFR phosphorylation = assay: Immunoblot analysis of orthotopic FG tumor lysates; format: in vivo, mice; conditions: after 10 days of erlotinib
Experimental: Error bars represent s.d. […] Scale bar, 50 μm. […] Scale bar, 100 μm.
All mouse experiments were carried out in accordance with approved protocols from the UCSD animal subjects committee and with the guidelines set forth in the NIH Guide for the Care and Use of Laboratory Animals. Tumors were generated by injection of FG human pancreatic carcinoma cells (10^6 tumor cells in 30 μL of sterile PBS) into the tail of the pancreas of 6-8 week old male immune compromised nu/nu mice.

[5] = test system: H441 human lung adenocarcinoma orthotopic tumors; assay: Orthotopic lung cancer xenograft model; format: in vivo, mice
Source text: (§1) (a) Flow cytometric quantification of cell surface markers after 3 weeks treatment with erlotinib (pancreatic and colon cancer cells) or lapatinib (breast cancer cells). (b) Flow cytometric analysis of αvβ3 expression in FG and Miapaca-2 cells following erlotinib. Error bars represent s.d. (n=3 independent experiments). (c) Top, immunofluorescence staining of integrin αvβ3 in tissue specimens obtained from orthotopic pancreatic tumors treated with vehicle (n=3) or erlotinib (n=4). Scale bar, 50 μm. Bottom, Integrin αvβ3 expression was quantified as ratio of integrin αvβ3 pixel area over nuclei pixel area using Metamorph (*P=0.049 using Mann-Whitney U test). (d) Right, intensity (scale 0 to 3) of β3 expression in mouse orthotopic lung tumors treated with vehicle (n=8) or erlotinib (n=7). Left, immunohistochemical staining of β3. Scale bar, 100 μm.

[6] = test system: phosphorylated TBK1 and NF-κB; assay: Immunoblot analysis of RalB effectors in cells grown in suspension; format: cell-based, human; conditions: for levels of phosphorylated TBK1 and NF-κB: erlotinib (0.5 μM)
Experimental: Immunoblot analysis of FG, FG-β3 and FG-β3 stably expressing non-silencing or RalB-specific ShRNA, grown in suspension and treated with erlotinib (0.5 μM). pTBK1 refers to phospho-S172 TBK1, p-p65 NF-κB refers to phospho-p65 NF-κB S276, pFAK refers to phospho-FAK Tyr 861. Data are representative of three independent experiments. (b) Tumor spheres formation assay of FG cells ectopically expressing vector control, WT NF-κB FLAG tagged or constitutively active S276D NF-κB FLAG tagged constructs treated with erlotinib (0.5 μM). Error bars represent s.d. (n=3 independent experiments). *P<0.05, **P<0.001, NS=not significant. Immunoblot analysis showing NF-κB WT and S276D NF-κB FLAG transfection efficiency. (c) Tumor spheres formation assay of FG-β3 treating with non-silencing (shCTRL) or NF-κB-specific shRNA and exposed to erlotinib (0.5 μM). Error bars represent s.d. (n=3 independent experiments). *P<0.05, NS=not significant. (d) Dose response in FG-β3 cells treated with erlotinib (10 nM to 5 μM), lenalidomide (10 nM to 5 μM) or a combination of erlotinib (10 nM to 5 μM) and lenalidomide (1 μM). Error bars represent s.d. (n=3 independent experiments). *P<0.05, NS=not significant. (e) Model depicting the integrin αvβ3-mediated EGFR TKI resistance and conquering EGFR TKI resistance pathway and its downstream RalB and NF-κB effectors.
Cells were lysed in either RIPA lysis buffer (50 mM Tris pH 7.4, 100 mM NaCL, 2 mM EDTA, […], 10% Triton, 0.1% SDS) or Triton lysis buffer (50 mM Tris pH 7.5, 150 mN NaCl, 1 mM EDTA, 5 mM MgCl2, 10% Glycerol, 1% Triton) supplemented with complete protease and phosphatase inhibitor mixtures (Roche) and centrifuged at 13,000 g for 10 min at 4° C. Protein concentration was determined by BCA assay. […]
(A) Effect of RalB knockdown on erlotinib resistance of β3-positive epithelial cancer cell lines. […] Results are expressed as % of tumor weight changes after erlotinib treatment compared to vehicle. **P<0.01. […]

PANC-1 cells = assay: Tumor sphere formation assay, erlotinib dose-response; format: cell-based, human; conditions: knockdown of αvβ3 in PANC-1 cells
Source text: as §1
Tumor spheres formation assays were performed essentially as described previously^17. Briefly, cells were seeded at 1000 to 2000 cells per well and grown for 12 days to 3 weeks. […] The media was replaced with fresh inhibitor every day for erlotinib, lapatinib, lenalidomide and 3 times a week for cisplatin and gemcitabine. Colonies were stained with crystal violet and scored with an Olympus SZH10 microscope.

H1650 cells = assay: Erlotinib response of human carcinoma cell lines in 3D culture; format: cell-based; conditions: wildtype KRAS and mutant EGFR
Experimental: (§2) Tumorsphere assay was performed as previously described (10).
(§3) (C) Percentage of integrin β3 positive cells in parental lines vs. after 3 or 8 weeks treatment with erlotinib. (D) Quantification of integrin β3 (ITGβ3) gene expression in human lung cancer biopsies from patients from the BATTLE Study (18) who were previously treated with an EGFR inhibitor and progressed (n=27), versus patients who were EGFR inhibitor naïve (n=39). (*P=0.04 using a Student's t test). (E) Paired human lung cancer biopsies obtained before and after erlotinib resistance were immunohistochemically stained for integrin β3. Scale bar, 50 μm. (F) Right, effect of integrin β3 knockdown on erlotinib resistance of β3-positive cells. Cells were treated with 0.5 μM of erlotinib. […] Left, effect of integrin β3 ectopic expression on erlotinib resistance in FG and H441 cells. […] (G) Right, effect of integrin β3 knockdown on erlotinib resistance in vivo, A549 shCTRL and A549 sh integrin β3 (n=8 per treatment group) were treated with erlotinib (25 mg/kg/day) or vehicle during 16 days. Results are expressed as average of tumor volume at day 16. *P<0.05. Left, orthotopic FG and FG-β3 tumors (>1000 mm^3; n=5 per treatment group) were treated for 30 days with vehicle or erlotinib. Results are expressed as % tumor weight compared to vehicle control. *P<0.05.

FG, H441, and CAPAN1 = assay: as above; format: cell-based; conditions: tumor cell lines with oncogenic KRAS
Experimental: as §2, §3

[7] = test system: stage IV non-small cell lung cancer; assay: Serial biopsies from NSCLC patients on erlotinib therapy; format: in vivo, human
Source text: Tumor biopsies from University of California, San Diego (UCSD) Medical Center stage IV non-small cell lung cancer patients were obtained before erlotinib treatment and 3 patients before and after erlotinib resistance. All biopsies are from lung or pleural effusion. […] This work was approved by the UCSD Institutional Review Board (IRB).

In the case of `C[C@]1(O)C[C@@H](c2nc(-c3ccc4ccc(-c5ccccc5)nc4c3)c3c(N)nccn32)C1` [OSI-906], the “effect of β3 expression on drug response” value [1] was “reduced sensitivity” and the “effect of αvβ3 expression on drug resistance” value (“effect of αvβ3 expression” below) (FG and FG-β3 cells) was “induced resistance”.
In the case of `Nc1ccn([C@@H]2O[C@H](CO)[C@@H](O)C2(F)F)c(=O)n1` [gemcitabine], the “effect of β3 expression on drug response” value [1] was “did not impact the response”, the “effect of integrin β3 expression on resistance” value [2] was “did not impact resistance” and the “effect of αvβ3 expression” value (FG and FG-β3 cells) was “failed to protect cells”.
In the case of `CC(C)C[C@H](NC(=O)[C@H](Cc1ccccc1)NC(=O)c1cnccn1)B(O)O` [bortezomib], the tumor growth [3] was “failed to impact tumor growth”.
For `CS(=O)(=O)CCNCc1ccc(-c2ccc3ncnc(Nc4ccc(OCc5cccc(F)c5)c(Cl)c4)c3c2)o1` [lapatinib], the “effect of β3 expression on drug response” value [1] was “reduced sensitivity”.
With `O=C(Nc1cc(Cl)cc2c1[nH]c1cnccc12)c1cccnc1` [PS-1145] the “response of β3-positive cells, tumorsphere formation in soft agar” value (shortened to “response of β3-positive cells”) [4] was “resistant”.
In the case of `Nc1cccc2c1CN(C1CCC(=O)NC1=O)C2=O` (racemic) [lenalidomide, (RS)-3-(4-amino-1-oxo-3H-isoindol-2-yl)piperidine-2,6-dione], the tumor growth [3] was “failed to impact tumor growth” and the “response of β3-positive cells” value [4] was “resistant”.
For `C#Cc1cccc(Nc2ncnc3cc(OCCOC)c(OCCOC)cc23)c1` [erlotinib, N-(3-ethynylphenyl)-6,7-bis(2-methoxyethoxy) quinazolin-4-amine], the “EGFR phosphorylation in tumor lysates” value (EGFR phosphorylation) was “suppressed EGFR phosphorylation”, the “time treated until moribund” value ([5]; 100 mg/kg/day by oral gavage, start 3 weeks after tumor cell injection) was roughly 58 days and the “tumor response to systemic erlotinib” value ([5]; systemic erlotinib treatment for 7-8 weeks) was “developed resistance”. The “effect of β3 expression on drug response” value [1] was “reduced sensitivity”, the “activation of TBK1 and NF-κB” value ([6]; FG and FG-β3, erlotinib (0.5 μM), Example 2) was “decreased the activation of these effectors only in the absence of integrin β3” and the “levels of phosphorylated TBK1 and NF-κB” value ([6]; αvβ3 negative cells) was “reduced levels of phosphorylated TBK1 and NF-κB”. The “levels of phosphorylated TBK1 and NF-κB” value ([6]; β3-positive cells) was “remained activated”, the “increase in tumor cell sensitivity to erlotinib” value (PANC-1 cells) was 10 fold and the “response of β3-positive cells” value [4] was “resistant”. For the same compound, the erlotinib sensitivity (H1650 cells) was “resistant”, the erlotinib sensitivity (FG, H441, and CAPAN1) was “sensitive” and the “time to disease progression” value ([7]; Patient 1) was 920 days. The “time to disease progression” value ([7]; Patient 2) was 92 days, the “time to disease progression” value ([7]; Patient 3) was 120 days and the initial clinical response ([7]; all 3 patients) was “initial partial response”.
With `N.N.[Cl][Pt][Cl]` [cisplatin] the “effect of β3 expression on drug response” value [1] was “did not impact the response”, the “effect of integrin β3 expression on resistance” value [2] was “did not impact resistance” and the “effect of αvβ3 expression” value (FG and FG-β3 cells) was “failed to protect cells”.
